Assay results published in patent US5332818A, “Immunosuppressive agent and process of producing the same” (Toray Industries, Inc., priority 1989, dated 1994).

Experiments:
μ receptor = target: T1, μ receptor (Cavia porcellus, UniProt A0ACM8Q262); assay: Antagonism of morphine (μ) in electrically stimulated isolated organ; assay type: cell-based, Guinea pig; conditions: for concentration dependency of antagonistic activity: μ receptor, FIGS. 1 and 2; for Slope / γ / pA2 (50% Confidence Limit): μ, in vitro; for pA2 (50% Confidence Limit): NLI value is mean ± S.E.
T1 construct: antagonism of morphine
T1 sequence (A0ACM8Q262 1-400): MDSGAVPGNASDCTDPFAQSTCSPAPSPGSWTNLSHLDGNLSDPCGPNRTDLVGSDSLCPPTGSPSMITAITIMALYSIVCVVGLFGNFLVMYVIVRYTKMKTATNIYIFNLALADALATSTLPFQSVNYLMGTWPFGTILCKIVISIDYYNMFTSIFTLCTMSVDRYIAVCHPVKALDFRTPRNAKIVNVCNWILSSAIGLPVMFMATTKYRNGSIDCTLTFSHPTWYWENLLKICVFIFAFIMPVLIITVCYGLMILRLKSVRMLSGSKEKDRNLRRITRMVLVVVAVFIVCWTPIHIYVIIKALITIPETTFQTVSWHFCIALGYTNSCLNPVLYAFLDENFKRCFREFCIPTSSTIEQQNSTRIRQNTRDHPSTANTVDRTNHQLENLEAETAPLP
Experimental: (§1) The term "δ-opioid antagonist" herein used-means a group of compounds which suppress the inhibition by DADLE or DPDPE of contraction of MVD specimen caused by electric stimulation.
(§2) Ke=[antagonist]/(IC50 ratio -1)
(§3) The IC50 ratio used herein is the value obtained by dividing the IC50 of an agonist, which is measured in the presence of an antagonist, with the IC50 value of the […], that is measured in the absence of the antagonist. Ke value is a value which is introduced for compensating the concentration of antagonist when comparing the IC50 ratio. Thus, the smaller the Ke value, the stronger the antagonist activity.
(§4) The antagonistic activities of the naloxindole hydrochloride and the naltrindole methanesulfonic acid salt obtained in Examples 1 and 3 were determined by the following method:
(§5) Guinea pig ileum (containing μ and κ receptors) and mouse vas deferens were taken out and the organs were subjected to electric stimulations. The activities of the compounds for inhibiting the suppression of contraction of the organs by three agonists, that is, morphine (μ), EKC (κ) and DADLE (δ) were measured.

κ receptor = target: T2, κ receptor (Cavia porcellus, UniProt P41144); assay: Antagonism of EKC (κ) in electrically stimulated isolated organ; assay type: cell-based, Guinea pig; conditions: for concentration dependency of antagonistic activity: κ receptor, FIGS. 1 and 2; for Slope / γ / Kb: κ, in vitro; for Kb: NLI value is mean ± S.E., read-out: pA2 (50% Confidence Limit) (converted)
T2 construct: from tissue; host or cells: guinea pig ileum, isolated, electrically stimulated
T2 sequence (P41144 whole entry): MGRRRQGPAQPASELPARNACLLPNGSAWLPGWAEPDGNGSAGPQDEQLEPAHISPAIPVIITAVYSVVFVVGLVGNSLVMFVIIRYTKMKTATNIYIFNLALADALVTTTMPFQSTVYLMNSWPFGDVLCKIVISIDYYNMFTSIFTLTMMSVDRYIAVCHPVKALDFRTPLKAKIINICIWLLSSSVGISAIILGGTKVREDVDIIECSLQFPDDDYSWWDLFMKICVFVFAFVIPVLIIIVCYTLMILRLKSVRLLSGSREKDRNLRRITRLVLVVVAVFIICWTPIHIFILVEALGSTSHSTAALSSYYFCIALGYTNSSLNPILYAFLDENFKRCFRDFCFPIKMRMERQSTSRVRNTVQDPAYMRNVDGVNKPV
Experimental: as §1, §2, §3, §4, §5

δ receptor = target: T3, δ receptor (Mus musculus, UniProt P32300); assay: Antagonism of DADLE (δ) in electrically stimulated isolated organ (vas deferens); assay type: cell-based; conditions: for κ/δ / μ/δ: Ke selectivity ratio; for κ/δ / μ/δ / selectivity to the δ receptors with respect to κ receptors / selectivity to the δ receptors with respect to μ receptors: Table 1; for concentration dependency of antagonistic activity: δ receptor, FIGS. 1 and 2; for Slope / γ / Kb: δ, in vitro; for Kb: read-out: pA2 (50% Confidence Limit) (converted)
T3 construct: from tissue; host or cells: mouse vas deferens, isolated, electrically stimulated
T3 sequence (P32300 whole entry): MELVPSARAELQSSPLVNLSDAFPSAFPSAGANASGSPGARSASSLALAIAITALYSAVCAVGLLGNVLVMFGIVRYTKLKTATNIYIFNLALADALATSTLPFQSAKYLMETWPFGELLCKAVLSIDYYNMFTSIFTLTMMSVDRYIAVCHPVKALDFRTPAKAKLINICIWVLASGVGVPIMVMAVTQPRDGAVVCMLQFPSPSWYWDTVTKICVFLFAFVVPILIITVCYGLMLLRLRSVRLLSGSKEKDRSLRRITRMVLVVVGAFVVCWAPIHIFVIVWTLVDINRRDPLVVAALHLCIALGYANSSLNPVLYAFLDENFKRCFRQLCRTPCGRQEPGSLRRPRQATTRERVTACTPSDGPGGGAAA
Experimental: as §1, §2, §3, §4, §5

mouse spleen cells = assay: Suppression of mitogen (ConA) reaction; assay type: cell-based, C57BL/6 mouse; conditions: 48 hours, 3 cases, read-out: Suppression Rate of Mitogen Reaction; for inhibition at 1 µg/mL: 1 μg/ml; for inhibition at 10 µg/mL: 10 μg/ml; for inhibition at 50 µg/mL: 50 μg/ml
Experimental: If mouse spleen cells are cultured in vitro in the presence of concanavalin A (hereinafter referred to as "ConA" for short), the cells are divided and proliferated (mitogen reaction). In this system, the immunosuppressive agent of the present invention or cyclosporin A as a comparative example was added to the culture medium and the effects to the mitogen reaction were examined.
More particularly, C57BL/6 mouse was sacrificed and the spleen was removed. The spleen cells were suspended in RPMI 1640 culture medium containing 10% fetal calf serum (hereinafter referred to as "RPMI 1640" for short) so as to prepare a spleen cell suspension (5×10^6 cells/ml). In the wells of a flat-bottomed 96-well microplate, 100 μl of the suspension was placed and then 50 μl of RPMI 1640 containing ConA (4 μg/ml) as well as 50 μl of RPMI 1640 containing the test compound in the concentration shown in Table 2 were added. The cells were cultured for 48 hours (37° C. 5%CO2) As a control, 50 μl of RPMI 1640 was added. Eight hours before the termination of the culture, 2 μ Ci of [^3 H] thymidine was […], added. After termination of the culture, the cells were collected on a filter paper by using a cell harvester. After drying the filter paper, the filter paper was placed in a vial containing toluene-based scintillator and the radioactivity was measured by a liquid scintillation counter.
The suppression rate of mitogen reaction was calculated according to the following equation: [formula]

spleen cells = assay: Suppression of MLR reaction; assay type: cell-based, mouse (C57BL/6 and mitomycin-treated Balb/c); conditions: for inhibition at 1 µg/mL / inhibition at 10 µg/mL / inhibition at 50 µg/mL: Mus musculus, 72 hours, 3 cases, NTI, NTB, NLI as hydrochloric acid salt, read-out: Suppression Rate of MLR Reaction; for inhibition at 1 µg/mL: 1 μg/ml; for inhibition at 10 µg/mL: 10 μg/ml; for inhibition at 50 µg/mL: 50 μg/ml; for MLR reaction: in words, hydrochloric acid salts
Experimental: If spleen cells from two different lines of mouse which are genetically different, the spleen cells recognize the other type of cells, and the cells are divided and proliferated (MLR reaction).
In this system, hydrochloric acid salt of NTI, NTB or NLI, or for comparison, cyclosporine A was added to the reaction medium and their effect to the MLR reaction was examined.
Balb/c mouse was sacrificed and the spleen was removed. The spleen cells were suspended in RPMI 1640 to prepare a spleen cell suspension (1×10^7 cells/ml). The spleen cells were then cultured in mitomycin C-containing RPMI 1640 for 30 minutes (37° C.) so as to carry out the mitomycin treatment. On the other hand, C57BL/6 mouse was sacrificed and spleen cell suspension (1×10^6 cells/ml) was prepared using RPMI 1640.
In the wells of a 96-well flat-bottomed microplate, 100 μl of C57BL/6 mouse spleen cell suspension, 50 μl of mitomycin-treated Balb/c mouse spleen cell suspension and 50 μl of RPMI 1640 containing the test compound were placed and the cells were cultured for 72 hours (37° C., 5%CO2). As a control, 50 μl of RPMI 1640 was added. Eight hours before the termination of the culture, 2 μCi of [^3 H] thymidine was added. After termination of the culture, the cells were collected on a filter paper by using a cell harvester. After drying the filter paper, the filter paper was placed in a vial containing toluene-based scintillator and the radioactivity was measured by a liquid scintillation counter.
The suppression rate of MLR reaction was calculated according to the following equation: [formula]

[1] = in words; cited from earlier work
[2] = in words; cited from earlier work; remark: listed apart in the source
[3] = system: graft versus host reaction; assay: Suppression of graft versus host reaction; assay type: in vivo, mouse (BDF1; C57BL/6 spleen cells); conditions: oral; for Suppression Rate of Graft versus Host Reaction: 100 mg/kg, once a day for 5 days, lymph node weight day 7, 4 cases, ** significance level < 0.02 (NTB), * < 0.05 (NTI); for graft versus host reaction: in words
Experimental: It is known that a graft versus host reaction occurs when spleen cells of a parent are transplanted to F1 mouse. In this system, NTI, NTB or cyclosporine A was administered to F1 mouse and the effects of these compounds on the graft versus host reaction were examined.
C57BL/6 mouse was sacrificed and the spleen was removed. Using phosphate buffered saline, a suspension of spleen cells (2×10^8 cells/ml) was prepared. To plantar of left hind leg of BDF1 mice, 50 μl of this spleen cell suspension was subcutaneously injected. From the day of this injection, each test compound was administered once a day for 5 days. The dose was 100 mg/kg and suspensions of the test compounds in 0.5% carboxymethyl cellulose (hereinafter referred to as "CMC") were orally administered. To the control group, 0.5% CMC alone was administered in the same manner. On the 7th day from the day of injection of the spleen cells, the mice were sacrificed and popliteal lymph nodes of right and left hind legs were removed and the weight of the lymph nodes was measured. The difference between the weight of the lymph nodes of the right and left hind legs was calculated and the difference was used as an index of the graft versus host reaction. The obtained results were analyzed by Student's t-test.
The suppression rate of graft versus host reaction was calculated according to the following equation: [formula]

| SMILES | concentration dependency of antagonistic activity (μ receptor) | Slope (μ receptor) | γ (μ receptor) | pA2 (50% Confidence Limit) (μ receptor) | concentration dependency of antagonistic activity (κ receptor) | Slope (κ receptor) | γ (κ receptor) | Kb (κ receptor) [nM] | κ/δ (δ receptor) | μ/δ (δ receptor) | selectivity to the δ receptors with respect to κ receptors (δ receptor) | selectivity to the δ receptors with respect to μ receptors (δ receptor) | concentration dependency of antagonistic activity (δ receptor) | inhibition at 1 µg/mL (mouse spleen cells) [%] | inhibition at 10 µg/mL (mouse spleen cells) [%] | inhibition at 50 µg/mL (mouse spleen cells) [%] | inhibition at 1 µg/mL (spleen cells) [%] | inhibition at 10 µg/mL (spleen cells) [%] | inhibition at 50 µg/mL (spleen cells) [%] | MLR reaction (spleen cells) | also measured |
| --- | --- | --- | --- | --- | --- | --- | --- | --- | --- | --- | --- | --- | --- | --- | --- | --- | --- | --- | --- | --- | --- |
| C=CCN1CC[C@]23c4c5ccc(O)c4O[C@H]2c2[nH]c4ccccc4c2C[C@@]3(O)[C@H]1C5 [NLI, naloxindole] | did not show dependency on the concentration | -0.063 | -0.062 | 6.86 ± 0.01 | did not show dependency on the concentration | 0.105 | 0.149 | 141 | 407 | 251 | about 400 times | about 250 times | concentration-dependent | 12 | 56 | 100 | 22 | 95 | 100 | suppressed | affinity to δ receptors (δ receptor; in words, NLI vs NTI): slightly inferior to NTI; Slope (δ receptor): 1.066; γ (δ receptor): 0.936; Kb (δ receptor): 0.55 nM |
| C=CC[C@@H]1/C=C(\C)C[C@H](C)C[C@H](OC)[C@H]2O[C@@](O)(C(=O)C(=O)N3CCCC[C@H]3C(=O)O[C@H](/C(C)=C/[C@@H]3CC[C@@H](O)[C@H](OC)C3)[C@H](C)[C@@H](O)CC1=O)[C@H](C)C[C@@H]2OC [FK-506] | – | – | – | – | – | – | – | – | – | – | – | – | – | – | – | – | – | – | – | – | toxicity to kidney [1]: stronger toxicity to kidney than cyclosporine A; toxicity to liver [2]: strong toxicity to liver |
| Oc1ccc2c3c1O[C@H]1c4[nH]c5ccccc5c4C[C@@]4(O)[C@@H](C2)N(CC2CC2)CC[C@]314 [NTI, naltrindole] | increases proportionally with its concentration | 1.330 | 0.791 | 7.42 (7.26-7.58) | increases proportionally with its concentration | 1.807 | 0.941 | 43.7 | 104 | 91 | about 100 times | about 100 times | increases proportionally with its concentration | 12 | 77 | 100 | 0 | 100 | 100 | suppressed | Slope (δ receptor): 1.354; γ (δ receptor): 0.863; Kb (δ receptor): 0.417 nM; Suppression Rate of Graft versus Host Reaction [3]: 47%; graft versus host reaction [3]: suppressed |
| Oc1ccc2c3c1O[C@H]1c4oc5ccccc5c4C[C@@]4(O)[C@@H](C2)N(CC2CC2)CC[C@]314 [NTB, naltrbenzofuran] | – | – | – | – | – | – | – | – | – | – | – | – | – | 14 | 41 | 100 | 5 | 81 | 100 | suppressed | Suppression Rate of Graft versus Host Reaction [3]: 44%; graft versus host reaction [3]: suppressed |
